Structures can show the parent of a compound that is named as a salt. Bounds are passed on as bounds.

For this assay, the target named is T1, human GPR119 (hGPR119) (Homo sapiens, UniProt Q8TDV5).
T1 construct: expressed in transfected cells
T1 sequence (Q8TDV5 1-335): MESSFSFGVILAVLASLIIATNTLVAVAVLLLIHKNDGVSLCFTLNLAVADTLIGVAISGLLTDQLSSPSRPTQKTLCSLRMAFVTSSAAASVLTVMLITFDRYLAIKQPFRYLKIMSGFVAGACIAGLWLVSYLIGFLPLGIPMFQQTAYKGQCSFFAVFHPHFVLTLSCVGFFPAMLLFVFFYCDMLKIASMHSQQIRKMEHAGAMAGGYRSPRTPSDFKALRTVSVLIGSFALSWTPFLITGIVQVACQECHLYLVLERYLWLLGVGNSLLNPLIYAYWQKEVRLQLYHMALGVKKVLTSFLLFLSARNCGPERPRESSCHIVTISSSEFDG
Kind of assay: cAMP accumulation assay (Cisbio cAMP Gs dynamic HTRF kit) in CHO-K1 cells stably expressing human GPR119. Type of assay: cell-based. To be noted: 4-parameter fit; for Emax: 1 h, % activity normalized to Max and Min controls; for EC50: 60 minutes at 37° C. The method, boiled down:
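CHO-K1 cells stably expressing hGPR119, used as assay-ready frozen stocks at ~10,000 cells/well, exposed to compound dose-response in stimulation buffer with Tween 80 for 60 min at 37° C. cAMP read by HTRF (665/620 nm ratio), normalised to Max/Min controls; EC50 and Max activity from 4-parameter fit.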
For orientation: cAMP levels reflect the balance of adenylyl cyclase and phosphodiesterase activity.

For orientation: Emax means the maximal effect, on the per cent scale that the assay sets. Broadly, the EC50 is the concentration at which the effect is half-maximal. A lower EC50 goes with greater potency. Regarding `O=C(Cc1ccc(OCCCC2CCN(c3ncc(Cl)cn3)CC2)cc1F)N1CC2(CCN(C[C@H](O)[C@H](O)[C@H](O)CO)C2)C1` [Example 66, 2-(4-(3-(1-(5-chloropyrimidin-2-yl)piperidin-4-yl)propoxy)-2-fluorophenyl)-1-(6-((2S,3S,4R)-2,3,4,5-tetrahydroxypentyl)-2,6-diazaspiro[3.4]octan-2-yl)ethan-1-one], the Emax was 100 to 130% and the 50% effective concentration (EC50) is at most 100 nM.
Taken in the same sequence, the figures for `O=C(Cc1ccc(OCCCC2CCN(c3ncc(Cl)cn3)CC2)cc1F)N1CCC2(CC1)CCN2C[C@H](O)[C@H](O)[C@H](O)CO` [Example 67, 2-(4-(3-(1-(5-chloropyrimidin-2-yl)piperidin-4-yl)propoxy)-2-fluorophenyl)-1-(1-((2S,3S,4R)-2,3,4,5-tetrahydroxypentyl)-1,7-diazaspiro[3.5]nonan-7-yl)ethan-1-one] were 100 to 130% and at most 100 nM.
The compound `O=C(Cc1ccc(OCCCC2CCN(c3ncc(Cl)cn3)CC2)cc1F)N1CCC2(CC1)CCN2C[C@H](O)[C@@H](O)[C@H](O)[C@H](O)CO` [Example 68, 2-(4-(3-(1-(5-chloropyrimidin-2-yl)piperidin-4-yl)propoxy)-2-fluorophenyl)-1-(1-((2S,3R,4R,5R)-2,3,4,5,6-pentahydroxyhexyl)-1,7-diazaspiro[3.5]nonan-7-yl)ethan-1-one] yielded an Emax of 100 to 130% and an EC50 of at most 100 nM.
Taken in the same sequence, the figures for `O=C(Cc1ccc(OCCCC2CCN(c3ncc(Cl)cn3)CC2)cc1F)N1CCC2(CC1)CN(C[C@H](O)[C@H](O)[C@H](O)CO)C2` [Example 69, 2-(4-(3-(1-(5-chloropyrimidin-2-yl)piperidin-4-yl)propoxy)-2-fluorophenyl)-1-(2-((2S,3S,4R)-2,3,4,5-tetrahydroxypentyl)-2,7-diazaspiro[3.5]nonan-7-yl)ethan-1-one] were 100 to 130% and 100 to 1000 nM.
Taken in the same sequence, the figures for `O=C(Cc1ccc(OCCCC2CCN(c3ncc(Cl)cn3)CC2)cc1F)N1CCC2(CC1)CN(C[C@H](O)[C@@H](O)[C@H](O)[C@H](O)CO)C2` [Example 70, 2-(4-(3-(1-(5-chloropyrimidin-2-yl)piperidin-4-yl)propoxy)-2-fluorophenyl)-1-(2-((2S,3R,4R,5R)-2,3,4,5,6-pentahydroxyhexyl)-2,7-diazaspiro[3.5]nonan-7-yl)ethan-1-one] were 100 to 130% and 100 to 1000 nM.
The corresponding values for `O=C(Cc1ccc(OCCCC2CCN(c3ncc(Cl)cn3)CC2)cc1F)N1CCN(C[C@H](O)[C@H](O)[C@H](O)CO)CC1` [Example 71, 2-(4-(3-(1-(5-chloropyrimidin-2-yl)piperidin-4-yl)propoxy)-2-fluorophenyl)-1-(4-((2S,3S,4R)-2,3,4,5-tetrahydroxypentyl)piperazin-1-yl)ethan-1-one] are 100 to 130% and at most 100 nM.
For the compound `O=C(Cc1ccc(OCCCC2CCN(c3ncc(Cl)cn3)CC2)cc1F)N1CCC2(CN(C[C@H](O)[C@H](O)[C@H](O)CO)CCO2)C1` (stereo partly drawn) [Example 72, 2-(4-(3-(1-(5-chloropyrimidin-2-yl)piperidin-4-yl)propoxy)-2-fluorophenyl)-1-(9-((2S,3S,4R)-2,3,4,5-tetrahydroxypentyl)-6-oxa-2,9-diazaspiro[4.5]decan-2-yl)ethan-1-one], the Emax was in the range of 100 to 130% and the concentration for a half-maximal effect (EC50) was at most 100 nM.
Taken in the same sequence, the figures for `O=C(Cc1ccc(OCCCC2CCN(c3ncc(Cl)cn3)CC2)cc1F)N1CCC2(CN(C[C@H](O)[C@@H](O)[C@H](O)[C@H](O)CO)CCO2)C1` (stereo partly drawn) [Example 73, 2-(4-(3-(1-(5-chloropyrimidin-2-yl)piperidin-4-yl)propoxy)-2-fluorophenyl)-1-(9-((2S,3R,4R,5R)-2,3,4,5,6-pentahydroxyhexyl)-6-oxa-2,9-diazaspiro[4.5]decan-2-yl)ethan-1-one] were 100 to 130% and at most 100 nM.
Taken in the same sequence, the figures for `O=C(Cc1ccc(OCCCC2CCN(c3ncc(Cl)cn3)CC2)cc1F)N1CCC2(CCCN2C[C@H](O)[C@H](O)[C@H](O)CO)C1` (stereo partly drawn) [Example 74, 2-(4-(3-(1-(5-chloropyrimidin-2-yl)piperidin-4-yl)propoxy)-2-fluorophenyl)-1-(1-((2S,3S,4R)-2,3,4,5-tetrahydroxypentyl)-1,7-diazaspiro[4.4]nonan-7-yl)ethan-1-one] were at least 130% and at most 100 nM.
The corresponding values for `O=C(Cc1ccc(OCCCC2CCN(c3ncc(Cl)cn3)CC2)cc1F)N1CCC2(CCCC2NC[C@H](O)[C@H](O)[C@H](O)CO)C1` (stereo partly drawn) [Example 76, 2-(4-(3-(1-(5-chloropyrimidin-2-yl)piperidin-4-yl)propoxy)-2-fluorophenyl)-1-(6-(((2S,3S,4R)-2,3,4,5-tetrahydroxypentyl)amino)-2-azaspiro[4.4]nonan-2-yl)ethan-1-one] are at least 130% and at most 100 nM.
As to `O=C(Cc1ccc(OCCCC2CCN(c3ncc(Cl)cn3)CC2)cc1F)N1CC2(CCC2NC[C@H](O)[C@H](O)[C@H](O)CO)C1` (stereo partly drawn) [Example 78, 2-(4-(3-(1-(5-chloropyrimidin-2-yl)piperidin-4-yl)propoxy)-2-fluorophenyl)-1-(5-(((2S,3S,4R)-2,3,4,5-tetrahydroxypentyl)amino)-2-azaspiro[3.3]heptan-2-yl)ethan-1-one], the Emax was at least 130% and the EC50 is at most 100 nM.
In turn, `O=C(Cc1ccc(OCCCC2CCN(c3ncc(Cl)cn3)CC2)cc1F)N1CCOC2(CCN(C[C@H](O)[C@H](O)[C@H](O)CO)C2)C1` (stereo partly drawn) [Example 80, 2-(4-(3-(1-(5-chloropyrimidin-2-yl)piperidin-4-yl)propoxy)-2-fluorophenyl)-1-(2-((2S,3S,4R)-2,3,4,5-tetrahydroxypentyl)-6-oxa-2,9-diazaspiro[4.5]decan-9-yl)ethan-1-one] displayed an Emax of 100 to 130% and an EC50 of at most 100 nM.
The corresponding values for `O=C(Cc1ccc(OCCCC2CCN(c3ncc(Cl)cn3)CC2)cc1F)N1CCOC2(CCN(C[C@H](O)[C@@H](O)[C@H](O)[C@H](O)CO)C2)C1` (stereo partly drawn) [Example 81, 2-(4-(3-(1-(5-chloropyrimidin-2-yl)piperidin-4-yl)propoxy)-2-fluorophenyl)-1-(2-((2S,3R,4R,5R)-2,3,4,5,6-pentahydroxyhexyl)-6-oxa-2,9-diazaspiro[4.5]decan-9-yl)ethan-1-one] are 100 to 130% and at most 100 nM.
Taken in the same sequence, the figures for `O=C(Cc1ccc(OCCCC2CCN(c3ncc(Cl)cn3)CC2)cc1F)N1CC2(C1)OCC2NC[C@H](O)[C@H](O)[C@H](O)CO` (stereo partly drawn) [Example 82, 2-(4-(3-(1-(5-chloropyrimidin-2-yl)piperidin-4-yl)propoxy)-2-fluorophenyl)-1-(3-(((2S,3S,4R)-2,3,4,5-tetrahydroxypentyl)amino)-1-oxa-6-azaspiro[3.3]heptan-6-yl)ethan-1-one] were 100 to 130% and at most 100 nM.
Taken in the same sequence, the figures for `O=C(Cc1ccc(OCCCC2CCN(c3ncc(Cl)cn3)CC2)cc1F)N1CCC2(CC2NC[C@H](O)[C@H](O)[C@H](O)CO)C1` (stereo partly drawn) [Example 83, 2-(4-(3-(1-(5-chloropyrimidin-2-yl)piperidin-4-yl)propoxy)-2-fluorophenyl)-1-(1-(((2S,3S,4R)-2,3,4,5-tetrahydroxypentyl)amino)-5-azaspiro[2.4]heptan-5-yl)ethan-1-one] were 100 to 130% and at most 100 nM.
On to `O=C(Cc1c(F)cc(OCCCC2CCN(c3ncc(Cl)cn3)CC2)cc1F)N1CCN(C[C@H](O)[C@@H](O)[C@H](O)[C@H](O)CO)CC1` [Example 85, 2-(4-(3-(1-(5-chloropyrimidin-2-yl)piperidin-4-yl)propoxy)-2,6-difluorophenyl)-1-(4-((2S,3R,4R,5R)-2,3,4,5,6-pentahydroxyhexyl)piperazin-1-yl)ethan-1-one formate], for which the Emax is at least 130% and the EC50 was at most 100 nM.
Taken in the same sequence, the figures for `O=C(Cc1ccc(OCCCCC2CCN(c3ncc(Cl)cn3)CC2)cc1F)N1CCN(C[C@H](O)[C@@H](O)[C@H](O)[C@H](O)CO)CC1` [Example 86, 2-(4-(4-(1-(5-chloropyrimidin-2-yl)piperidin-4-yl)butoxy)-2-fluorophenyl)-1-(4-((2S,3R,4R,5R)-2,3,4,5,6-pentahydroxyhexyl)piperazin-1-yl)ethan-1-one] were 100 to 130% and at most 100 nM.
The corresponding values for `O=C(Cc1c(F)cc(OCCCCC2CCN(c3ncc(Cl)cn3)CC2)cc1F)N1CCN(C[C@H](O)[C@@H](O)[C@H](O)[C@H](O)CO)CC1` [Example 87, 2-(4-(4-(1-(5-chloropyrimidin-2-yl)piperidin-4-yl)butoxy)-2,6-difluorophenyl)-1-(4-((2S,3R,4R,5R)-2,3,4,5,6-pentahydroxyhexyl)piperazin-1-yl)ethan-1-one] are at least 130% and at most 100 nM.
`O=C(Cc1ccc(OCCCC2CCN(c3ncc(Cl)cn3)CC2)cn1)N1CCN(C[C@H](O)[C@@H](O)[C@H](O)[C@H](O)CO)CC1` [Example 88, 2-(5-(3-(1-(5-chloropyrimidin-2-yl)piperidin-4-yl)propoxy)pyridin-2-yl)-1-(4-((2S,3R,4R,5R)-2,3,4,5,6-pentahydroxyhexyl)piperazin-1-yl)ethan-1-one] registered an Emax of 100 to 130% and a concentration giving a half-maximal response (EC50) above 10000 nM.
